A word on the Km: it is the concentration of substrate that gives half-maximal velocity.

The subject of this test is T1, Ps-Grx3.
T1 construct: full length, 87 residues (264 bp ORF), class I dithiol Grx with CPYC motif
As to the kind of experiment: GR-coupled NADPH oxidation at […] nm, Lineweaver-Burk. Conditions: 100 mM Tris-HCl pH 8.0, 25 °C; 1.0 mM GSH, 0.2 mM NADPH, 0.6 μg/mL GR; substrate 0.5-2.0 mM. The class given is biochemical, Psychrobacter sp. ANT206.
Consider `N[C@@H](CSSC[C@H](N)C(=O)O)C(=O)O` [L-cystine], for which the Km is 520 µM. In the case of `N[C@@H](CSS(=O)(=O)O)C(=O)O` [S-sulfocysteine] it was 790 µM; in that of `O=C1O[C@H]([C@@H](O)CO)C(=O)C1=O` [DHA, dehydroascorbate], 650 µM; in that of `OCCSSCCO` [HED, 2-Hydroxyethyl disulfide], 690 µM.
